Among the data in BindingDB's records for patent US12492186 (Bristol Myers Squibb, 2025) are IC50 values, retold here.

This test addresses T1, Interleukin-1 receptor-associated kinase 4 (Homo sapiens, UniProt Q9NWZ3).
T1 sequence (Q9NWZ3 whole entry): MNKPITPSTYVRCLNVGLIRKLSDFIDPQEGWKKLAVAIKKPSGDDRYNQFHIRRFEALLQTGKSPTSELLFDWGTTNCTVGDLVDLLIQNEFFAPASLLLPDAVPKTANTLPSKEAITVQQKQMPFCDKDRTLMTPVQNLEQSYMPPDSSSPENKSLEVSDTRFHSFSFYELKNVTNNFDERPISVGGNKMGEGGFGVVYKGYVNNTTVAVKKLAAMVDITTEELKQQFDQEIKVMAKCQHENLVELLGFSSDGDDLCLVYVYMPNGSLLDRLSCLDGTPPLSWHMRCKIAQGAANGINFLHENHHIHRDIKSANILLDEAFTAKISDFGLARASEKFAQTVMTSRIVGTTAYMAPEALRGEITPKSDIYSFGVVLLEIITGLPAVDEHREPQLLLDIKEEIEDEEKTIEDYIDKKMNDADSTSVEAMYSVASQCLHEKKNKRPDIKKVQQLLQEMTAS
Kind of test: IRAK4 Inhibition Assay. The procedure:
The assays were performed in U-bottom 384-well plates. The final assay volume was 30 μL prepared from 15 μL additions of enzyme and substrates (fluoresceinated peptide and ATP) and test compounds in assay buffer (20 mM HEPES pH 7.2, 10 mM MgCl2, 0.015% Brij 35 and 4 mM DTT). The reaction was initiated by the combination of IRAK4 with substrates and test compounds. The reaction mixture was incubated at room temperature for 60 min. and terminated by adding 45 μL of 35 mM EDTA to each sample. The reaction mixture was analyzed on the Caliper LABCHIP 3000 (Caliper, Hopkinton, MA) by electrophoretic separation of the fluorescent substrate and phosphorylated product. Inhibition data were calculated by comparison to no enzyme control reactions for 100% inhibition and vehicle-only reactions for 0% inhibition. The final concentrations of reagents in the assays are ATP, 500 μM; FL-IPTSPITTTYFFFKKK peptide 1.5 μM; IRAK4, 0.6 nM; and DMSO, 1.6%.
In the case of `CC(O)CCNC(=O)c1cnc2ccc(-c3cn[nH]c3)cc2c1NCC(F)F` (stereo not drawn) [US12492186, Example 65], the IC50 – broadly, the concentration at which inhibition is half-maximal – was 15.2 nM. For the compound `CC(O)CCNC(=O)c1cnc2ccc(-c3cn[nH]c3)cc2c1NC1CC(F)(F)C1` (stereo not drawn) [US12492186, Example 54], the IC50 worked out at 17.6 nM.

Turning to `CC(C)Nc1c(-c2cc(C3CCCCN3)no2)cnc2ccc(-c3cn[nH]c3)cc12` (stereo not drawn) [US12492186, Example 128], the 50% inhibitory concentration (IC50) was found to be 4.8 nM.
